Data on 1 molecule can be found in publication doi:10.1101/2021.09.27.461913v1, “Interactions of cytosolic termini of the Jen1 monocarboxylate transporter are critical for trafficking, transport activity and endocytosis” (biorxiv, 2021).

Holding throughout (test): radiolabelled [3H]-xanthine uptake in intact  cells
Holding throughout (type): cell-based, Aspergillus nidulans
Holding throughout (details): labelled compound

One test concerns T1, UapA/Jen1NT94-CT33.
T1 construct: Jen1 1-94 / intact UapA / Jen1 584-616, GFP-tagged, GAL promoter, in S. cerevisiae; one polypeptide; with Carboxylic acid transporter protein homolog; Carboxylic acid transporter protein homolog

Another test has as its system T2, UapA/Jen1NT94.
T2 construct: Jen1 residues 1-94 fused N-terminally to intact UapA, GFP-tagged, GAL promoter, in S. cerevisiae; one polypeptide; with Carboxylic acid transporter protein homolog

The test system of the next test is T3, UapA/Jen1CT33.
T3 construct: Jen1 residues 584-616 fused C-terminally to intact UapA, GFP-tagged, GAL promoter, in S. cerevisiae; one polypeptide; with Carboxylic acid transporter protein homolog

As for `O=c1[nH]c(=O)c2[nH]cnc2[nH]1` [xanthine], the results for the Michaelis constant (Km) in the test with UapA/Jen1NT94-CT33, in the test on UapA/Jen1NT94 and with UapA/Jen1CT33 were 101 ± 10 µM, 5 ± 2 µM and 10 ± 3 µM, respectively.
